In patent publication US7491819B1 (priority 2004, dated 2009):

target: T1, HIV-integrase (Human immunodeficiency virus type 1 group M subtype B, UniProt P12497); assay: HIV-Integrase Inhibition Activity (SPA bead strand-transfer assay); format: biochemical; conditions: Table 1; read-out: Activity (HIV-integrase inhibition, IC50 class)
T1 construct: Recombinant integrase (0.26 ng) was incubated with the beads
Method in brief: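 Biotin-labelled substrate DNA (5 pmole) bound to streptavidin SPA beads, preloaded with recombinant integrase (0.26 ng) for 90 min at 37° C, then washed. Inhibitors and 0.1 fmol P33-labelled target DNA added; reaction stopped with 10 mM EDTA. Integration read as scintillation CPM.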

Row | SMILES | IC50 [nM]
1 | CC1(C)OCCn2c1nc(C(=O)NCCCc1ccc(Cl)c(Cl)c1)c(O)c2=O [Example 25, Pyrimido[2,1-c][1,4]oxazine-2-carboxamide, N-[3-(3,4-dichlorophenyl)propyl]-4,6,7,9-tetrahydro-3-hydroxy-9,9-dimethyl-4-oxo-] | 100 to 1000
2 | CC1(C)OCCn2c1nc(C(=O)NCc1ccc(F)cc1-c1cccnc1)c(O)c2=O [Example 75, Pyrimido[2,1-c][1,4]oxazine-2-carboxamide, N-[[4-fluoro-2-(3-pyridinyl)phenyl]methyl]-4,6,7,9-tetrahydro-3-hydroxy-9,9-dimethyl-4-oxo-] | 2 to 100
3 | CCC1(CC)OCCn2c1nc(C(=O)NCc1ccc(F)cc1S(=O)(=O)N(C)C)c(O)c2=O [Example 205, Pyrimido[2,1-c][1,4]oxazine-2-carboxamide, N-[[2-[(dimethylamino)sulfonyl]-4-fluorophenyl]methyl]-9,9-diethyl-4,6,7,9-tetrahydro-3-hydroxy-4-oxo-] | 2 to 100
4 | CC1(C)OCCn2c1nc(C(=O)NCc1ccc(C#N)cc1)c(O)c2=O [Example 265, Pyrimido[2,1-c][1,4]oxazine-2-carboxamide, N-[(4-cyanophenyl)methyl]-4,6,7,9-tetrahydro-3-hydroxy-9,9-dimethyl-4-oxo-] | 2 to 100
5 | COc1ncccc1-c1ccccc1CNC(=O)c1nc2n(c(=O)c1O)CCOC2(C)C [Example 152, Pyrimido[2,1-c][1,4]oxazine-2-carboxamide, 4,6,7,9-tetrahydro-3-hydroxy-N-[[2-(2-methoxy-3-pyridinyl)phenyl]methyl]-9,9-dimethyl-4-oxo-] | 2 to 100
6 | CNC(=O)c1ccc(-c2ccccc2CNC(=O)c2nc3n(c(=O)c2O)CCOC3(C)C)cc1 [Example 175, Pyrimido[2,1-c][1,4]oxazine-2-carboxamide, 4,6,7,9-tetrahydro-3-hydroxy-9,9-dimethyl-N-[[4′-[(methylamino)carbonyl][1,1′-biphenyl]-2-yl]methyl]-4-oxo-] | 2 to 100
7 | CC1(C)OCCn2c1nc(C(=O)NCc1ccc(F)cc1C#CCN1CCCCS1(=O)=O)c(O)c2=O [Example 93, Pyrimido[2,1-c][1,4]oxazine-2-carboxamide, N-[[4-fluoro-2-[3-(tetrahydro-1,1-dioxido-2H-1,2-thiazin-2-yl)-1-propynyl]phenyl]methyl]-4,6,7,9-tetrahydro-3-hydroxy-9,9-dimethyl-4-oxo-] | 2 to 100
8 | CC1(C)OCCn2c1nc(C(=O)NCc1ccc(F)cc1N1C(=O)CC[C@H]1CO)c(O)c2=O [Example 130, Pyrimido[2,1-c][1,4]oxazine-2-carboxamide, N-[[4-fluoro-2-[(2S)-2-(hydroxymethyl)-5-oxo-1-pyrrolidinyl]phenyl]methyl]-4,6,7,9-tetrahydro-3-hydroxy-9,9-dimethyl-4-oxo-] | 2 to 100
9 | CC1(C)OCCn2c1nc(C(=O)NCc1ccc(F)cc1-n1cnc(C(=O)N3CCOCC3)n1)c(O)c2=O [Example 62, Pyrimido[2,1-c][1,4]oxazine-2-carboxamide, N-[[4-fluoro-2-[3-(4-morpholinylcarbonyl)-1H-1,2,4-triazol-1-yl]phenyl]methyl]-4,6,7,9-tetrahydro-3-hydroxy-9,9-dimethyl-4-oxo-] | 2 to 100
10 | CN(C)C(=O)c1ncn(-c2cc(F)ccc2CNC(=O)c2nc3n(c(=O)c2O)CCOC3(C)C)n1 [Example 63, Pyrimido[2,1-c][1,4]oxazine-2-carboxamide, N-[[2-[3-[(dimethylamino)carbonyl]-1H-1,2,4-triazol-1-yl]-4-fluorophenyl]methyl]-4,6,7,9-tetrahydro-3-hydroxy-9,9-dimethyl-4-oxo-] | 2 to 100
11 | CC1(C)OCCn2c1nc(C(=O)NCc1ccc(F)cc1N1CCCCCC1=O)c(O)c2=O [Example 125, Pyrimido[2,1-c][1,4]oxazine-2-carboxamide, N-[[4-fluoro-2-(hexahydro-2-oxo-1H-azepin-1-yl)phenyl]methyl]-4,6,7,9-tetrahydro-3-hydroxy-9,9-dimethyl-4-oxo-] | 2 to 100
12 | CS(=N)c1cc(F)ccc1CNC(=O)c1nc2n(c(=O)c1O)CCOC2(C)C (centres unmarked) [Example 103, Pyrimido[2,1-c][1,4]oxazine-2-carboxamide, N-[[4-fluoro-2-(S-methylsulfinimidoyl)phenyl]methyl]-4,6,7,9-tetrahydro-3-hydroxy-9,9-dimethyl-4-oxo-] | 2 to 100
13 | CC1(C)OCCn2c1nc(C(=O)NCc1ccc(F)cc1Br)c(O)c2=O [Example 59, Pyrimido[2,1-c][1,4]oxazine-2-carboxamide, N-[(2-bromo-4-fluorophenyl)methyl]-4,6,7,9-tetrahydro-3-hydroxy-9,9-dimethyl-4-oxo-] | 2 to 100
14 | CN(C)CC#Cc1cc(F)ccc1CNC(=O)c1nc2n(c(=O)c1O)CCOC2(C)C [Example 91, Pyrimido[2,1-c][1,4]oxazine-2-carboxamide, N-[[2-[3-(dimethylamino)-1-propynyl]-4-fluorophenyl]methyl]-4,6,7,9-tetrahydro-3-hydroxy-9,9-dimethyl-4-oxo-] | 2 to 100
15 | CNC(=O)c1cc(F)ccc1CNC(=O)c1nc2n(c(=O)c1O)CCOC2(C)C [Example 49, Pyrimido[2,1-c][1,4]oxazine-2-carboxamide, N-[[4-fluoro-2-[(methylamino)carbonyl]phenyl]methyl]-4,6,7,9-tetrahydro-3-hydroxy-9,9-dimethyl-4-oxo-] | 2 to 100
16 | CSc1ccccc1CNC(=O)c1nc2n(c(=O)c1O)CCOC2(C)C [Example 112, Pyrimido[2,1-c][1,4]oxazine-2-carboxamide, 4,6,7,9-tetrahydro-3-hydroxy-9,9-dimethyl-N-[[2-(methylthio)phenyl]methyl]-4-oxo-] | 2 to 100
17 | CC1(C)OCCn2c1nc(C(=O)NCc1ccc(F)cc1-n1cncn1)c(O)c2=O [Example 21, Pyrimido[2,1-c][1,4]oxazine-2-carboxamide, N-[[4-fluoro-2-(1H-1,2,4-triazol-1-yl)phenyl]methyl]-4,6,7,9-tetrahydro-3-hydroxy-9,9-dimethyl-4-oxo-] | 2 to 100
18 | Cc1ccc(Cl)c(CNC(=O)c2nc3n(c(=O)c2O)CCOC3(C)C)c1F [Example 274, Pyrimido[2,1-c][1,4]oxazine-2-carboxamide, N-[(6-chloro-2-fluoro-3-methylphenyl)methyl]-4,6,7,9-tetrahydro-3-hydroxy-9,9-dimethyl-4-oxo-] | 2 to 100
19 | CC1(C)OCCn2c1nc(C(=O)NCc1ccc(F)cc1C#CCOS(C)(=O)=O)c(O)c2=O [Example 90, Pyrimido[2,1-c][1,4]oxazine-2-carboxamide, N-[[4-fluoro-2-[3-[(methylsulfonyl)oxy]-1-propynyl]phenyl]methyl]-4,6,7,9-tetrahydro-3-hydroxy-9,9-dimethyl-4-oxo-] | 2 to 100
20 | CC1(C)OCCn2c1nc(C(=O)NCc1ccc(F)cc1-n1ccnc1)c(O)c2=O [Example 53, Pyrimido[2,1-c][1,4]oxazine-2-carboxamide, N-[[4-fluoro-2-(1H-imidazol-1-yl)phenyl]methyl]-4,6,7,9-tetrahydro-3-hydroxy-9,9-dimethyl-4-oxo-] | 2 to 100
21 | CC1(C)OCCn2c1nc(C(=O)NCc1cccc(C3(C(F)(F)F)N=N3)c1)c(O)c2=O [Example 105, Pyrimido[2,1-c][1,4]oxazine-2-carboxamide, 4,6,7,9-tetrahydro-3-hydroxy-9,9-dimethyl-4-oxo-N-[[3-[3-(trifluoromethyl)-3H-diazirin-3-yl]-phenyl]methyl]-] | 2 to 100
22 | CC1(C)OCCn2c1nc(C(=O)NCc1ccccc1N1CCCCC1)c(O)c2=O [Example 254, Pyrimido[2,1-c][1,4]oxazine-2-carboxamide, 4,6,7,9-tetrahydro-3-hydroxy-9,9-dimethyl-4-oxo-N-[[2-(1-piperidinyl)phenyl]methyl]-] | 2 to 100
23 | Cc1cccc(CNC(=O)c2nc3n(c(=O)c2O)CCOC3(C)C)c1 [Example 223, Pyrimido[2,1-c][1,4]oxazine-2-carboxamide, 4,6,7,9-tetrahydro-3-hydroxy-9,9-dimethyl-N-[(3-methylphenyl)methyl]-4-oxo-] | 2 to 100
24 | CC1(C)OCCn2c1nc(C(=O)NCc1ccccc1-c1ccc(N3CCOCC3)nc1)c(O)c2=O [Example 156, Pyrimido[2,1-c][1,4]oxazine-2-carboxamide, 4,6,7,9-tetrahydro-3-hydroxy-9,9-dimethyl-N-[[2-[6-(4-morpholinyl)-3-pyridinyl]phenyl]methyl]-4-oxo-] | 2 to 100
25 | CC1(C)OCCn2c1nc(C(=O)NCc1ccc(F)c3ccccc13)c(O)c2=O [Example 40, Pyrimido[2,1-c][1,4]oxazine-2-carboxamide, N-[(4-fluoro-1-naphthalenyl)methyl]-4,6,7,9-tetrahydro-3-hydroxy-9,9-dimethyl-4-oxo-] | 2 to 100
26 | Cc1ccc(CNC(=O)c2nc3n(c(=O)c2O)CCOC3(C)C)c(C)c1 [Example 37, Pyrimido[2,1-c][1,4]oxazine-2-carboxamide, N-[(2,4-dimethylphenyl)methyl]-4,6,7,9-tetrahydro-3-hydroxy-9,9-dimethyl-4-oxo-] | 2 to 100
27 | CC1(C)OCCn2c1nc(C(=O)NCc1cccc3c1OCCO3)c(O)c2=O [Example 267, Pyrimido[2,1-c][1,4]oxazine-2-carboxamide, N-[(2,3-dihydro-1,4-benzodioxin-5-yl)methyl]-4,6,7,9-tetrahydro-3-hydroxy-9,9-dimethyl-4-oxo-] | 2 to 100
28 | COP(=O)(OC)c1cc(F)ccc1CNC(=O)c1nc2n(c(=O)c1O)CCOC2(C)C [Example 281, Phosphonic acid, [5-fluoro-2-[[[(4,6,7,9-tetrahydro-3-hydroxy-9,9-dimethyl-4-oxopyrimido[2,1-c][1,4]oxazin-2-yl)carbonyl]amino]methyl]phenyl]-, dimethyl ester] | 2 to 100
29 | CC1(C)OCCn2c1nc(C(=O)NCc1ccc(F)cc1-n1cnc(C(=O)NS(C)(=O)=O)n1)c(O)c2=O [Example 64, Pyrimido[2,1-c][1,4]oxazine-2-carboxamide, N-[[4-fluoro-2-[3-[[(methylsulfonyl)amino]carbonyl]-1H-1,2,4-triazol-1-yl]phenyl]methyl]-4,6,7,9-tetrahydro-3-hydroxy-9,9-dimethyl-4-oxo-] | 2 to 100
